pIC50: −log10 of the molar value. Like-named read-outs stand apart in the source and are kept apart here.
What was measured:
Ba/F3 Parental = experiment: Ba/F3 viability assay (CellTiter-Glo), parental; type: cell-based
In short: (§1)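 Cells are exposed to test compounds, and viability is then read to gauge inhibition of proliferation.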

EGFR^L58R/T790M = EGFR^L58R/T790M (Homo sapiens, UniProt P00533, L858R/T790M); experiment: in vitro kinase assay (HTRF KinEASE-TK kit), LT; type: biochemical; conditions: kinase inhibition
Chain of EGFR^L58R/T790M (P00533 25-1210 T790M/L858R): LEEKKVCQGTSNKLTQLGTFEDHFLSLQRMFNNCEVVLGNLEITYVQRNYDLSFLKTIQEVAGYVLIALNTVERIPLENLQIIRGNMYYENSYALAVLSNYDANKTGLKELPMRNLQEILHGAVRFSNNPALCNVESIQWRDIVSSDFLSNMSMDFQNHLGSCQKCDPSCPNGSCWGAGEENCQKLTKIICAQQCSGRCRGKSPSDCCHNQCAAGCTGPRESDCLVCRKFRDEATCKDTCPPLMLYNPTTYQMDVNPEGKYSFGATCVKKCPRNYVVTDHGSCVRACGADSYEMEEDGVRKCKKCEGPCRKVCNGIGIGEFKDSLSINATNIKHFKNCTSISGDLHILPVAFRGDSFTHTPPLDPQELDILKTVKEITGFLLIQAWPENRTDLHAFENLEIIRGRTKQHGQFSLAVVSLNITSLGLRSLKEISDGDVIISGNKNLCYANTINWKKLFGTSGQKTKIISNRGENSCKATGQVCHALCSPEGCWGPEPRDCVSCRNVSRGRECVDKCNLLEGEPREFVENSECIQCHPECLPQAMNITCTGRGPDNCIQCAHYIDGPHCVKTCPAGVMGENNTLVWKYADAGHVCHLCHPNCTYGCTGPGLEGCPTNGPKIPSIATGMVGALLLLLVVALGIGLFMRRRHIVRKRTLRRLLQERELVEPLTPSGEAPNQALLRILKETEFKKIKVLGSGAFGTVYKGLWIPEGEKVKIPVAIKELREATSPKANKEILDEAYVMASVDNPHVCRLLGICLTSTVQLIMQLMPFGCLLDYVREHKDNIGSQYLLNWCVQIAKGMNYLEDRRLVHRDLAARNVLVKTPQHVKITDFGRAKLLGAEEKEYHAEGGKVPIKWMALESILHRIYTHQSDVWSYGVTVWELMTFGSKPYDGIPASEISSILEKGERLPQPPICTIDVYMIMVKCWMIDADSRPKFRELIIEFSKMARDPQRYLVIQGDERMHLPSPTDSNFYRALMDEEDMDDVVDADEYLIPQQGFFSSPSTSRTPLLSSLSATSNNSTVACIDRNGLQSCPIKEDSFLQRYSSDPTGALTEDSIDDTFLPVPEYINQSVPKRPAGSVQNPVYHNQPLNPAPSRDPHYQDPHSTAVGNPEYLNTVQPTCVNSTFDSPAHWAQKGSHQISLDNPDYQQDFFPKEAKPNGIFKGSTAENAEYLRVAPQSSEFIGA
Text: (§2) Assays using an in vitro kinase assay kit (HTRF KinEASE-TK kit) can be used to study the inhibitory activity of compounds described herein with respect to EGFR mutants such as EGFR^L858R, EGFR^L58R/T790M, and EGFR^L858R/T790M/C^797S.

[1] = molecular target: Ba/F3 EGFR-Del19/T790M/C797S (Homo sapiens, UniProt P00533, T790M/C797S, cells depend on it, form not given); experiment: Ba/F3 viability assay (CellTiter-Glo), DTC; type: cell-based; conditions: anti-proliferation, read-out: BaF3 DTC IC50
In short: as §1

Ba/F3 EGFR-Del19/T790M = Ba/F3 EGFR-Del19/T790M (Homo sapiens, UniProt P00533, T790M, cells depend on it, form not given); experiment: Ba/F3 viability assay (CellTiter-Glo), DT; type: cell-based; conditions: anti-proliferation, read-out: BaF3 DT IC50
Chain of Ba/F3 EGFR-Del19/T790M (P00533 with tags, fused parts or gaps DEL746-750/T790M, form open): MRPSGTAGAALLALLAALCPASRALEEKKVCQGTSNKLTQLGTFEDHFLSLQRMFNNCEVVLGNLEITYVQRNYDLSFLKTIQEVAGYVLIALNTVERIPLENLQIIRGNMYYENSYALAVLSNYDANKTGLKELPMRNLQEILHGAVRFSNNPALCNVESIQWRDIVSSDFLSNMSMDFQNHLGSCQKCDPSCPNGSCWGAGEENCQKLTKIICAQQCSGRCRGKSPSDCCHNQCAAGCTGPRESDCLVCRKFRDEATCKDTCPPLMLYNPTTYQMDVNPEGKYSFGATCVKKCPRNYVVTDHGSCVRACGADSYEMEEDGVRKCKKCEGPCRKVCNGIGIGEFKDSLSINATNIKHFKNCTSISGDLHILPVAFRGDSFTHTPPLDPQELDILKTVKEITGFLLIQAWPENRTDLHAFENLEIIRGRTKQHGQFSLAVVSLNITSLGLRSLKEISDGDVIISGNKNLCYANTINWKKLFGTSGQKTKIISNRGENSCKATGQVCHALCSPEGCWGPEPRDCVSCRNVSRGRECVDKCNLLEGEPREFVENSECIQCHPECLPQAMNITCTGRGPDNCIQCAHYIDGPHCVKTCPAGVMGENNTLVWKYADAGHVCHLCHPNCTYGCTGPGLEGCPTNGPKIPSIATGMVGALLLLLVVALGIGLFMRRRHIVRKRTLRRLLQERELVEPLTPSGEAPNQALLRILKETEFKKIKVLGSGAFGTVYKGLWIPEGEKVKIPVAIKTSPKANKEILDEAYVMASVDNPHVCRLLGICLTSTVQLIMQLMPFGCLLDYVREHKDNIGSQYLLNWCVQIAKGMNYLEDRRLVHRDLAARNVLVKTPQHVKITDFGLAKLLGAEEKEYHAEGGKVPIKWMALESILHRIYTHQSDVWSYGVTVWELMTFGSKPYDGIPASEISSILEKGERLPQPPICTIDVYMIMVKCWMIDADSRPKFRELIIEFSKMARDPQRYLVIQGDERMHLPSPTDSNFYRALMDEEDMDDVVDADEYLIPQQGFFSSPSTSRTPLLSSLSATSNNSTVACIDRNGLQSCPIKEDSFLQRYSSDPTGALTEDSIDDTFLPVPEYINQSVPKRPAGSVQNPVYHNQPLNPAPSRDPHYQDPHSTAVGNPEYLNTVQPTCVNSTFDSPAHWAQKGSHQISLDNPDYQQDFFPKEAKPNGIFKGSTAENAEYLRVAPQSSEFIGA
In short: as §1

Ba/F3 EGFR-Del19/C797S = Ba/F3 EGFR-Del19/C797S (Homo sapiens, UniProt P00533, C797S, cells depend on it, form not given); experiment: Ba/F3 viability assay (CellTiter-Glo), DC; type: cell-based; conditions: anti-proliferation, read-out: BaF3 DC IC50
Chain of Ba/F3 EGFR-Del19/C797S (P00533 with tags, fused parts or gaps DEL746-750/C797S, form open): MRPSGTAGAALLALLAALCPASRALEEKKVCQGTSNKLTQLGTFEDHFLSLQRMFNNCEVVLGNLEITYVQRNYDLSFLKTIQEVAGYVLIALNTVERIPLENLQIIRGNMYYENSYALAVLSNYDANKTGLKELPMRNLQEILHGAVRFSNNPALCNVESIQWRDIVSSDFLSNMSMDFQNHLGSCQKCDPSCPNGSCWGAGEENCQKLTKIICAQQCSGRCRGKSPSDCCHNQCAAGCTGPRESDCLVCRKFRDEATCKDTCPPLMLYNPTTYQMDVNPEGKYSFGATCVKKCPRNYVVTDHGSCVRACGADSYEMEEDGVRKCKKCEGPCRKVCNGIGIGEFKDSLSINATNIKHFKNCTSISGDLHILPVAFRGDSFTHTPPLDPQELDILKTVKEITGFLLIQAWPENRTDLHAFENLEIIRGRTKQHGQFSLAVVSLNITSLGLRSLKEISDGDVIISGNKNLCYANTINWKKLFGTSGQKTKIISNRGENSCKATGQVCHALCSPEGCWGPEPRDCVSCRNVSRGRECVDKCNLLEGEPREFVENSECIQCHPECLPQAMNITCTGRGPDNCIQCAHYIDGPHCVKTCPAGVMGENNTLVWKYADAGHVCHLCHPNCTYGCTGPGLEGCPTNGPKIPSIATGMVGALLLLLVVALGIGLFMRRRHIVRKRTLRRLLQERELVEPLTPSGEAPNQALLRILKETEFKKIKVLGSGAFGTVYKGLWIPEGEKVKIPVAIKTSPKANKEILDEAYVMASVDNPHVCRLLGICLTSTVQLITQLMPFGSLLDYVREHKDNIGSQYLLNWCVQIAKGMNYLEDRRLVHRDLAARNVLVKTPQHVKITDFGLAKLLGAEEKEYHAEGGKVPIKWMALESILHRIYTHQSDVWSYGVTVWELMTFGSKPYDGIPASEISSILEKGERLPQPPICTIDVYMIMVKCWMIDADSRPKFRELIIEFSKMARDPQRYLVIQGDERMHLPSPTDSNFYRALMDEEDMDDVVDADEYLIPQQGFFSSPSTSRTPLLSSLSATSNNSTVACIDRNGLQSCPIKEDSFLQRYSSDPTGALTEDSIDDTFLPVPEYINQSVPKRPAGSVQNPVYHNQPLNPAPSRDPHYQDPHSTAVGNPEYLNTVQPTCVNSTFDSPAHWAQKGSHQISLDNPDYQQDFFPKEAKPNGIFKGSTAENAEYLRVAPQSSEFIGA
In short: as §1

EGFR^L858R/T790M/C^797S = EGFR^L858R/T790M/C^797S (Homo sapiens, UniProt P00533, C797S/L858R/T790M); experiment: in vitro kinase assay (HTRF KinEASE-TK kit), LTC; type: biochemical; conditions: kinase inhibition
Text: as §2

EGFR^L858R = EGFR^L858R (Homo sapiens, UniProt P00533, L858R); experiment: in vitro kinase assay (HTRF KinEASE-TK kit), L; type: biochemical; conditions: kinase inhibition
Chain of EGFR^L858R (P00533 25-1210 L858R): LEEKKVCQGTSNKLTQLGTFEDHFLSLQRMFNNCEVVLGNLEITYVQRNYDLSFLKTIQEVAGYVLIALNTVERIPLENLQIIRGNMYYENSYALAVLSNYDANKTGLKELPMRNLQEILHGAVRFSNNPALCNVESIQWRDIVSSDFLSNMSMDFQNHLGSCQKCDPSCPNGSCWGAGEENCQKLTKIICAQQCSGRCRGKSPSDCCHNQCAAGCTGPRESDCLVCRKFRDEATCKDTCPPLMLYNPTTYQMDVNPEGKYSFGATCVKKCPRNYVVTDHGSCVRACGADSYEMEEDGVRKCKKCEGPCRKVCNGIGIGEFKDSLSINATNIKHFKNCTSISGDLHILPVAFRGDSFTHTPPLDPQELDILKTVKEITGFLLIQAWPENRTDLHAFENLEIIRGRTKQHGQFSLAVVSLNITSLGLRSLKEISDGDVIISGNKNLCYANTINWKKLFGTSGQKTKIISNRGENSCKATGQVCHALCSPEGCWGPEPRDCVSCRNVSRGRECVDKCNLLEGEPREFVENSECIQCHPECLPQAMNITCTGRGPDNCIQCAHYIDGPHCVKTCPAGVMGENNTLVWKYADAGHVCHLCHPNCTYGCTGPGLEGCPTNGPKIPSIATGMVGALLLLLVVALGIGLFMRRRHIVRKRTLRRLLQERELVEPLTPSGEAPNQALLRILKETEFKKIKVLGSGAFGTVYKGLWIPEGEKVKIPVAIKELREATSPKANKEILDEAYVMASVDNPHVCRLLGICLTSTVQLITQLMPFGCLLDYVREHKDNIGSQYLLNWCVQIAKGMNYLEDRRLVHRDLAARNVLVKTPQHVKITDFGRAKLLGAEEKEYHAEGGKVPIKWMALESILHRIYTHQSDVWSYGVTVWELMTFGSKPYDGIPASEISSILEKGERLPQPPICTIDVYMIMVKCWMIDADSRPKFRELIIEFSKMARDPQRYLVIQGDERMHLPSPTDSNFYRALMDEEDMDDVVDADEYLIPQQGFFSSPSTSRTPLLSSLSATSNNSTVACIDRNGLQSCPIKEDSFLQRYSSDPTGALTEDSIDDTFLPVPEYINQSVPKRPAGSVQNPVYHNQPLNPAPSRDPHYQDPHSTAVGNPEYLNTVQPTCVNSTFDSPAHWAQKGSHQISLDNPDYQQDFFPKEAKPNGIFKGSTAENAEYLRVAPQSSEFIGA
Text: as §2

[2] = Mus musculus, BaF3, anti-proliferation

SMILES	pIC50 (Ba/F3 Parental; [2])	pIC50 (EGFR^L58R/T790M)	GI50 [1] [nM]	GI50 (Ba/F3 EGFR-Del19/T790M) [nM]	GI50 (Ba/F3 EGFR-Del19/C797S) [nM]	pIC50 (EGFR^L858R/T790M/C^797S)	pIC50 (EGFR^L858R)	pIC50 (Ba/F3 Parental; anti-proliferation, read-out: BaF3 parental IC50)
C[C@H]1CCOc2c(cnn2C)-c2nccc(n2)Nc2cc3c(cn2)c(-c2cc(OCCN(C)C)ccc2F)nn31 [(130)]	≤ 6.00	> 8.00	10 to 100	10 to 100	10 to 100	> 8.00	7.00 to 8.00	
CCN1CCC(Oc2cc(F)cc(-c3nn4c5cc(ncc35)Nc3ccnc(n3)-c3cnn(C)c3OCC[C@@H]4C)c2)CC1 [(128)]	6.00 to 7.00	> 8.00	10 to 100	10 to 100	10 to 100	> 8.00	7.00 to 8.00	
C[C@H]1CCOc2c(cnn2C)-c2nccc(n2)Nc2cc3c(cn2)c(N2CC[C@@H](N(C)CCF)C2)nn31 [(179)]	6.00 to 7.00	> 8.00	< 10	< 10	10 to 100	> 8.00	> 8.00	
CC1CCOc2c(cnn2CC2CC2)-c2nccc(n2)Nc2cc3c(cn2)c(N2CCC2)nn31 (stereo not shown) [(2)]	6.00 to 7.00	> 8.00	10 to 100	10 to 100	10 to 100	> 8.00	7.00 to 8.00	
CC1CCOc2c(cnn2C)-c2nccc(n2)Nc2cc3c(cn2)c(-c2ccc(CN4CCN(C)CC4)o2)nn31 (stereo not shown) [(63), 11,16-dimethyl-19-[5-[(4-methylpiperazin-1-yl)methyl]-2-furyl]-13-oxa-2,6,10,11,17,18,22,25-octazapentacyclo[15.5.2.13,7.08,12.020,24]pentacosa-1(22),3,5,7(25),8(12),9,18,20,23-nonaene]	6.00 to 7.00	> 8.00	10 to 100	10 to 100	< 10	> 8.00	> 8.00	
CCn1nccc1-c1nn2c3cc(ncc13)Nc1ccnc(n1)-c1cnn(C)c1OCCCC2C (stereo not shown) [(86)]	≤ 6.00	> 8.00	10 to 100	10 to 100	10 to 100	> 8.00	7.00 to 8.00	
CCn1cc(-c2nn3c4cc(ncc24)Nc2ccnc(n2)-c2cnn(C)c2OCC[C@@H]3C)cc1CN1CCN(C)CC1 [(146)]	6.00 to 7.00	> 8.00	< 10	< 10	< 10	> 8.00	> 8.00	
C[C@H]1CCOc2c(cnn2C)-c2nccc(n2)Nc2cc3c(cn2)c(-c2ccc(CN4CCN(CCCF)CC4)n2C)nn31 [(190)]	6.00 to 7.00	> 8.00	< 10	< 10	< 10	> 8.00	> 8.00	
C[C@H]1CCOc2c(cnn2C)-c2nccc(n2)Nc2cc3c(cn2)c(-c2ccc(CN4CC[C@@H](N(C)C)C4)n2C)nn31 [(186)]	6.00 to 7.00	> 8.00	< 10	< 10	< 10	> 8.00	> 8.00	
C[C@H]1CCOc2c(cnn2C)-c2nccc(n2)Nc2cc3c(cn2)c(N2CCC2)nn31 [(70)]		> 8.00	10 to 100	< 10	10 to 100	> 8.00	> 8.00	6.00 to 7.00
C[C@H]1CCOc2c(cnn2C)-c2nccc(n2)Nc2cc3c(cn2)c(-c2ncc(CN4CCN(C)CC4)s2)nn31 [(107), (16S)-11,16-dimethyl-19-[5-[(4-methylpiperazin-1-yl)methyl]thiazol-2-yl]-13-oxa-2,6,10,11,17,18,22,25-octazapentacyclo[15.5.2.13,7.08,12.020,24]pentacosa-1(22),3,5,7(25),8(12),9,18,20,23-nonaene]	6.00 to 7.00	> 8.00	< 10	< 10	< 10	> 8.00	> 8.00	
CC1CCCOc2c(cnn2C)-c2nccc(n2)Nc2cc3c(cn2)c(N2CCC2)nn31 (stereo not shown) [(1)]	6.00 to 7.00	> 8.00	< 10	< 10	10 to 100	> 8.00	> 8.00	
C[C@H]1CCOc2c(cnn2C)-c2nccc(n2)Nc2cc3c(cn2)c(-c2cccc(CN(C)C)c2)nn31 [(165)]	6.00 to 7.00	> 8.00	< 10	< 10	< 10	> 8.00	> 8.00	
CCN(CC)CCOc1cccc(-c2nn3c4cc(ncc24)Nc2ccnc(n2)-c2cnn(C)c2OCC[C@@H]3C)c1C [(158)]	6.00 to 7.00	> 8.00	100 to 1000	100 to 1000	100 to 1000	> 8.00	6.00 to 7.00	
CCn1cc(-c2nn3c4cc(ncc24)Nc2ccnc(n2)-c2cnn(C)c2OCC[C@@H]3C)cc1CN1CCOCC1 [(148)]	6.00 to 7.00	> 8.00	< 10	< 10	< 10	> 8.00	> 8.00	
C[C@H]1CCOc2c(cnn2C)-c2nccc(n2)Nc2cc3c(cn2)c(-c2ccc(CN4CCCC4)n2C)nn31 [(140)]	6.00 to 7.00	> 8.00	< 10	< 10	< 10	> 8.00	> 8.00	
C[C@H]1CCOc2c(cnn2C)-c2nccc(n2)Nc2cc3c(cn2)c(N2CC[C@@H](CN(C)CCF)C2)nn31 [(175)]	7.00 to 8.00	> 8.00	< 10	< 10	< 10	> 8.00	> 8.00	
C[C@H]1CCOc2c(cnn2C)-c2nccc(n2)Nc2cc3c(cn2)c(-c2ccc(CN(C)C)o2)nn31 [(162)]	6.00 to 7.00	> 8.00	< 10	< 10	< 10	> 8.00	> 8.00	
CCn1cc(CN2CCN(C)CC2)cc1-c1nn2c3cc(ncc13)Nc1ccnc(n1)-c1cnn(C)c1OCCC2C (stereo not shown) [(82)]	7.00 to 8.00	> 8.00	10 to 100	10 to 100	10 to 100	> 8.00	6.00 to 7.00	
CCn1ccc(-c2nn3c4cc(ncc24)Nc2ccnc(n2)-c2cnn(C)c2OCCCC3C)n1 (stereo not shown) [(85)]	≤ 6.00	> 8.00	< 10	< 10	10 to 100	> 8.00	7.00 to 8.00	
C[C@H]1CCOc2c(cnn2C)-c2nccc(n2)Nc2cc3c(cn2)c(-c2ncc(CN(C)C)s2)nn31 [(157)]	6.00 to 7.00	> 8.00	< 10	10 to 100	10 to 100	> 8.00	> 8.00	
CCn1c(CN2CCN(C3CC3)CC2)ccc1-c1nn2c3cc(ncc13)Nc1ccnc(n1)-c1cnn(C)c1OCC[C@@H]2C [(125)]	6.00 to 7.00	> 8.00	< 10	< 10	10 to 100	> 8.00	7.00 to 8.00	
